Here are results for 13 compounds from ChEMBL document CHEMBL6177931, “Exploring diverse frontiers: Advancements of bioactive 4-aminoquinoline-based molecular hybrids in targeted therapeutics and beyond” (Eur J Med Chem, 2024).

Converted amounts (≈) assume the structure as drawn.

A word on the GI50: it is the concentration that inhibits growth by half. Read a high GI50 as less potent growth inhibition. In general, IC50 refers to the concentration needed to halve the response being measured. As a reminder, the EC50 is the midpoint of the concentration-response curve. The term MIC denotes the lowest concentration found to suppress growth. A higher MIC goes with weaker potency. The term inhibition denotes how much of the control response was suppressed.

Data set [1] is described as follows: Growth inhibition of human 184B5 cells incubated for 48 hrs by SRB assay. It counts as toxicity, cell-based. On the technique in general: The SRB assay estimates cell density from bound dye.
Data set [2] has as its system MDA-MB-468. In words: Growth inhibition of human MDA-MB-468 cells incubated for 48 hrs by SRB assay. Type of data set: functional.
The nature of data set [3]: Growth inhibition of human MCF-10A cells incubated for 48 hrs by SRB assay. Type of data set: toxicity, cell-based.
Data set [4] concerns MDA-MB-231. Nature of the data set: Growth inhibition of human MDA-MB-231 cells incubated for 48 hrs by SRB assay. Type of data set: functional.
For data set [5], the system named is MCF7. Nature of the data set: Growth inhibition of human MCF7 cells incubated for 48 hrs by SRB assay. Type of data set: functional.
The test system of data set [6] is HepG2. In words: Anticancer activity against human HepG2 cells incubated for 48 hrs by MTT assay. The conditions noted are these: HepG2, 48 h. It counts as functional, cell-based. For orientation: Formazan colour is commonly taken as a measure of viable cells.
In data set [7] the test system is HL-60. Nature of the data set: Anticancer activity against human HL-60 cells incubated for 48 hrs by MTT assay. Type of data set: functional, cell-based. Conditions: HL-60, 48 h.
Data set [8] relates to MCF7. In words: Anticancer activity against human MCF7 cells incubated for 48 hrs by MTT assay. It counts as functional, cell-based. Conditions: MCF7, 48 h.
Data set [9] relates to HeLa. In words: Anticancer activity against human HeLa cells incubated for 48 hrs by MTT assay. Type of data set: functional, cell-based.
The test system of data set [10] is Curvularia lunata. Nature of the data set: Antifungal activity against Curvularia lunata incubated for 72 hrs by mycelium growth rate method. It counts as functional, organism-based.
The test system of data set [11] is Pyricularia grisea. Nature of the data set: Antifungal activity against Pyricularia grisea incubated for 72 hrs by mycelium growth rate method. It counts as functional, organism-based.
In data set [12] the test system is Alternaria alternata. In words: Antifungal activity against Alternaria alternata incubated for 72 hrs by mycelium growth rate method. It counts as functional, organism-based.
Data set [13] deals with Aspergillus niger. Nature of the data set: Antifungal activity against Aspergillus niger incubated for 48 to 72 hrs by broth microdilution method. It counts as functional. Conditions: time 48-72 hrs. Background: In broth dilution the organism is exposed to a series of concentrations in liquid medium.
The test system of data set [14] is Candida albicans. Nature of the data set: Antifungal activity against Candida albicans incubated for 48 to 72 hrs by broth microdilution method. It counts as functional. The conditions noted are these: time 48-72 hrs.
Data set [15] relates to Aspergillus fumigatus. In words: Antifungal activity against Aspergillus fumigatus incubated for 48 to 72 hrs by broth microdilution method. It counts as functional. Conditions: time 48-72 hrs.
For data set [16], the target named is Acetylcholinesterase (Electrophorus electricus, UniProt O42275). In words: Inhibition of electric eel AChE using […] as substrate measured after 2 mins by Ellman's reagent based spectrophotometric analysis.
Chain of Acetylcholinesterase (Electrophorus electricus, UniProt O42275) (O42275 whole entry): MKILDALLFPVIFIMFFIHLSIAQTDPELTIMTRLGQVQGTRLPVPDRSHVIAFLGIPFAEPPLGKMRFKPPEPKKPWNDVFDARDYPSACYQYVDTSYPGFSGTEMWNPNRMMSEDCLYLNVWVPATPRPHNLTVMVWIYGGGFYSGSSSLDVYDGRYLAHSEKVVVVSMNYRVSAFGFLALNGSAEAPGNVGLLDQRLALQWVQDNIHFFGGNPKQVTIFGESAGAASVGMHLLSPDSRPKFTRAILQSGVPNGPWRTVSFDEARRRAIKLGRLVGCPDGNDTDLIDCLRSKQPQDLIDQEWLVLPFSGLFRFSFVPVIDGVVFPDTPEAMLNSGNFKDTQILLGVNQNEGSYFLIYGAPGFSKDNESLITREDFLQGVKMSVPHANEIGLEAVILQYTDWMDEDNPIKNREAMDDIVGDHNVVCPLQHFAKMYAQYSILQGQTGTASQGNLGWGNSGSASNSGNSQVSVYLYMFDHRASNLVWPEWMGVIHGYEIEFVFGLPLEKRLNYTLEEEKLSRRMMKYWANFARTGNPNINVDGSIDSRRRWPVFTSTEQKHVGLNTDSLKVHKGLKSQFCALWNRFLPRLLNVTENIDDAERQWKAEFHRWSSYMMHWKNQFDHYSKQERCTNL
Data set [17] deals with Cholinesterase (Equus caballus, UniProt P81908). In words: Inhibition of equine serum BChE using […] as substrate measured after 2 mins by Ellman's reagent based spectrophotometric analysis.
Chain of Cholinesterase (Equus caballus, UniProt P81908) (P81908 whole entry): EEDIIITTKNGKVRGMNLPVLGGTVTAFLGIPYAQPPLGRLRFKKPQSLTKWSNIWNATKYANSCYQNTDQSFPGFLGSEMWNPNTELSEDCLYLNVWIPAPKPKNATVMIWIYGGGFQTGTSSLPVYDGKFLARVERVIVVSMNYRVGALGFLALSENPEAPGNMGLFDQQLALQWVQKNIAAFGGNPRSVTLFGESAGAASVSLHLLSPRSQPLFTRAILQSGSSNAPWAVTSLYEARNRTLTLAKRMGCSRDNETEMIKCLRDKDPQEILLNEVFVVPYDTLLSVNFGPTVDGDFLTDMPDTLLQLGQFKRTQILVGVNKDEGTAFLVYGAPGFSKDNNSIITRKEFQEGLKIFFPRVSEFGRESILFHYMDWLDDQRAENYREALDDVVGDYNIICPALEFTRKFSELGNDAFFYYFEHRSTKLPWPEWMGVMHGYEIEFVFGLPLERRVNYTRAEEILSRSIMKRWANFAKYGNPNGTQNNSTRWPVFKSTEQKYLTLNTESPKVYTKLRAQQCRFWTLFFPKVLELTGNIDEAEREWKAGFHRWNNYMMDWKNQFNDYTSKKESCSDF
Data set [18] concerns SMMC-7721. In words: Antiproliferative activity against human SMMC-7721 cells assessed as reduction in cell proliferation incubated for 24 hrs by MTT assay. It counts as functional, cell-based. Conditions: SMMC-7721, 24 h.
Data set [19] concerns Huh-7. Nature of the data set: Antiproliferative activity against human Huh-7 cells assessed as reduction in cell proliferation incubated for 24 hrs by MTT assay. Type of data set: functional, cell-based. Conditions: Huh-7, 24 h.
For data set [20], the system named is HepG2. In words: Antiproliferative activity against human HepG2 cells assessed as reduction in cell proliferation incubated for 24 hrs by MTT assay. Type of data set: functional, cell-based. The conditions noted are these: HepG2, 24 h.
The test system of data set [21] is MCF7. In words: Antiproliferative activity against human MCF7 cells assessed as reduction in cell viability incubated for 24 hrs by MTT assay. It counts as functional, cell-based. The conditions noted are these: MCF7, 24 h.
Data set [22] deals with A549. Nature of the data set: Antiproliferative activity against human A549 cells assessed as reduction in cell viability incubated for 24 hrs by MTT assay. Type of data set: functional, cell-based. Conditions: A549, 24 h.
Data set [23] is described as follows: Antiproliferative activity against human AG01522 cells assessed as reduction in cell viability incubated for 24 hrs by MTT assay. Type of data set: functional, cell-based. The conditions noted are these: AG01522, 24 h.
Data set [24] concerns HT-29. Nature of the data set: Antiproliferative activity against human HT-29 cells assessed as reduction in cell viability incubated for 24 hrs by MTT assay. Type of data set: functional, cell-based. The conditions noted are these: HT-29, 24 h.
The test system of data set [25] is MCF7. Nature of the data set: Anticancer activity against human MCF7 cells. It counts as functional, cell-based.
The subject of data set [26] is HeLa. Nature of the data set: Anticancer activity against human HeLa cells. It counts as functional, cell-based.
Data set [27] concerns the target Acetylcholinesterase (Homo sapiens, UniProt P22303). Nature of the data set: Inhibition of human AChE.
The target in data set [28] is Cholinesterase (Homo sapiens, UniProt P06276). In words: Inhibition of human BChE.
Chain of Cholinesterase (Homo sapiens, UniProt P06276) (P06276 whole entry): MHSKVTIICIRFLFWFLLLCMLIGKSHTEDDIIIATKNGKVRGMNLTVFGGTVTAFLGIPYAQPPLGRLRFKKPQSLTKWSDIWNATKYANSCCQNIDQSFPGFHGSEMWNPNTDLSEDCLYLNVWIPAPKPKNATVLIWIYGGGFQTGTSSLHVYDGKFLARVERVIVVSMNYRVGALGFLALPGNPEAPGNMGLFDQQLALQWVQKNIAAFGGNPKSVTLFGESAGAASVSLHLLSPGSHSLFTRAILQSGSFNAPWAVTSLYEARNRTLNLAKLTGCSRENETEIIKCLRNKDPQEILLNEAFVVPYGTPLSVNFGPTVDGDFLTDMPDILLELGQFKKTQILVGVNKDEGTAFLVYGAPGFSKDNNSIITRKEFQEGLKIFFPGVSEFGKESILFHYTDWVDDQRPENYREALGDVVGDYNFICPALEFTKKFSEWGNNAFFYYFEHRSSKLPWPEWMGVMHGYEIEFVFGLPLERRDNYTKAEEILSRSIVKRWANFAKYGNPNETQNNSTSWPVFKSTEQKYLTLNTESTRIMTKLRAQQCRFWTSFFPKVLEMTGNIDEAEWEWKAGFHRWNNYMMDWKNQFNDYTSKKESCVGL
Data set [29] deals with Plasmodium falciparum. In words: Antiplasmodial activity against chloroquine sensitive Plasmodium falciparum NF54 incubated for 48 hrs by lactate dehydrogenase assay. Type of data set: functional, organism-based. Conditions: NF54, Erythrocyte.
Data set [30] has as its system Mycobacterium tuberculosis. In words: Antitubercular activity against Mycobacterium tuberculosis H37Rv assessed as inhibition of bacterial growth at 250 microg/ml relative to control. It counts as functional.
Data set [31] has as its system Mycobacterium tuberculosis. In words: Antitubercular activity against Mycobacterium tuberculosis H37Rv. It counts as functional.
Data set [32] relates to Escherichia coli. In words: Antibacterial activity against Escherichia coli NCIM-2065 incubated for 16 to 24 hrs by broth microdilution method. Type of data set: functional. The conditions noted are these: time 16-24 hrs.
Data set [33] concerns Pseudomonas aeruginosa. Nature of the data set: Antibacterial activity against Pseudomonas aeruginosa NCIM-2036 incubated for 16 to 24 hrs by broth microdilution method. It counts as functional. The conditions noted are these: time 16-24 hrs.
For data set [34], the system named is Bacillus subtilis. In words: Antibacterial activity against Bacillus subtilis NCIM-2063 incubated for 16 to 24 hrs by broth microdilution method. It counts as functional. Conditions: time 16-24 hrs.
The subject of data set [35] is Bacillus cereus. In words: Antibacterial activity against Bacillus cereus NCIM-2156 incubated for 16 to 24 hrs by broth microdilution method. The conditions noted are these: time 16-24 hrs. It counts as functional.
Data set [36] relates to Proteus vulgaris. Nature of the data set: Antibacterial activity against Proteus vulgaris […] NCIM-2027 incubated for 16 to 24 hrs by broth microdilution method. It counts as functional. Conditions: time 16-24 hrs.
For data set [37], the system named is Staphylococcus aureus. In words: Antibacterial activity against Staphylococcus aureus NCIM-2079 incubated for 16 to 24 hrs by broth microdilution method. Type of data set: functional. The conditions noted are these: time 16-24 hrs.

Chain of Acetylcholinesterase (Homo sapiens, UniProt P22303) (P22303 whole entry): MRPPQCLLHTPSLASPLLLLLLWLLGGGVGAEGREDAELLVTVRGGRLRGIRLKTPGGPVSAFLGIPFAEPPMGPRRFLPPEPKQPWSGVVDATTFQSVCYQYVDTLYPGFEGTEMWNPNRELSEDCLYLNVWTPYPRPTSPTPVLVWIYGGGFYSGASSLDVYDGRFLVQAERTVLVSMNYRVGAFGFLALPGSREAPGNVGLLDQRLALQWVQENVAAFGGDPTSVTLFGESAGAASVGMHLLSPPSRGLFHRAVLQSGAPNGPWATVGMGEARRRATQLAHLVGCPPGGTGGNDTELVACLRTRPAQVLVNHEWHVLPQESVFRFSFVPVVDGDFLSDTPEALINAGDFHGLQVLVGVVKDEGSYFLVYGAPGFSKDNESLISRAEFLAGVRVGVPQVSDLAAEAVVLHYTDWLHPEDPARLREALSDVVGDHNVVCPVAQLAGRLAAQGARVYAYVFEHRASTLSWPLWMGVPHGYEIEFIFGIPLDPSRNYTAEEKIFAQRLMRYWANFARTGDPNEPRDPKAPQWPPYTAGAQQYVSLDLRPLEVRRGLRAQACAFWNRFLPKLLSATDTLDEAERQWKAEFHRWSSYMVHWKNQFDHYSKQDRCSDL

With `O=[N+]([O-])c1ccc(S(=O)(=O)N2CCN(c3ccnc4cc(Cl)ccc34)CC2)c([N+](=O)[O-])c1`, the GI50 at 48 h in data set [1] worked out at 9 µM; in data set [3], 12.3 µM. Further, the figures for the concentration for 50% growth inhibition (GI50) in data set [2], in data set [4] and in [5] were 0.7 µM, 3.4 µM and 2.3 µM, respectively.
For the compound `S=C(NNc1ccnc2cc(Cl)ccc12)Nc1nc(Nc2ccc(Cl)cc2)nc(Nc2ccc(Cl)cc2)n1`, the IC50 in data set [6] was determined as 45.3 µM; in [7], 26.3 µM; in data set [8], 32.3 µM; in [9], 32.4 µM.
`Cl.Clc1ccc(Nc2cc(-c3ccccc3)nc3ccccc23)cc1`: the EC50 in [10] was determined as 13.3 µg/mL; in data set [11], 14.4 µg/mL; in [12], 15.6 µg/mL.
As to `NCCCNc1nc(NCCCN)nc(NC(=S)NNc2ccnc3cc(Cl)ccc23)n1`, the minimal inhibitory concentration (MIC) in [13], in data set [14] and in data set [15] was 8 µg/mL (≈ 16.8 µM) each time.
Turning to `COc1cc(/C=C/C(=O)NCCCNc2cc(C)nc3ccccc23)ccc1OCc1ccccc1`, the IC50 in data set [16] is 2.47 µM; in data set [17] it was 0.1 µM.
With `O=C(N/N=C/c1cc(O)ccc1O)c1ccc(Nc2ccnc3ccccc23)cc1`, the IC50 is greater than 50 µM in data set [18], 18.6 µM in data set [19] and 23.7 µM in data set [20].
As to `O=c1cc(CCl)n(CCCNc2ccnc3cc(Cl)ccc23)cc1OCc1ccccc1`, the IC50 was 1.26 µM in data set [21], 0.81 µM in data set [22], 2.87 µM in data set [23] and 1.41 µM in data set [24].
In the case of `C[C@H]1[C@H](C)CC[C@]2(C(=O)OCCNc3ccnc4cc(Cl)ccc34)CC[C@]3(C)C(=CC[C@@H]4[C@@]5(C)CC[C@H](O)C(C)(C)[C@@H]5CC[C@]43C)[C@H]12`, the results for the IC50 in data set [25] and in [26] were 48.2 µg/mL (≈ 72.8 µM) and 105 µg/mL (≈ 158 µM), respectively.
`COn1cc(CCNC(=S)NCCCCCNc2c3c(nc4ccccc24)CCCC3)c2ccccc21`: the IC50 was 0.07 µM in data set [27] and 0.039 µM in data set [28].
Take `O=C(/C=C/c1ccc(Cl)cc1)c1ccc(S(=O)(=O)NCCCNc2ccnc3cc(Cl)ccc23)cc1`: the IC50 in data set [29] stood at 0.1 µM.
Still for that read-out and setting: to `O=C(/C=C/c1ccccc1Br)c1ccc(S(=O)(=O)NCCCNc2ccnc3cc(Cl)ccc23)cc1` belongs 0.1 µM.
In the case of `Cc1cc(C(=O)NNc2ccnc3cc(Cl)ccc23)c2ccccc2n1`, the inhibition at 250 µg/mL in [30] came out at 98%. 42 µM (≈ 15.2 µg/mL) was the least that counted as inhibitory in data set [31] (MIC).
On to `O=[N+]([O-])c1ccc(Nc2nc(NC(=S)NNc3ccnc4cc(Cl)ccc34)nc(Nc3ccc([N+](=O)[O-])cc3)n2)cc1`, for which the MIC came out at 12.5 µM (≈ 7.55 µg/mL) in data set [32]; 3.12 µM (≈ 1.88 µg/mL) in data set [33]; 25 µM (≈ 15.1 µg/mL) in data set [34]; 12.5 µM (≈ 7.55 µg/mL) in data set [35]; 3.12 µM (≈ 1.88 µg/mL) in data set [36]; 3.12 µM (≈ 1.88 µg/mL) in [37].
